The record followed here is ChEMBL document CHEMBL2073945, “Contribution of cholesterol and phospholipids to inhibitory effect of dimethyl-beta-cyclodextrin on efflux function of P-glycoprotein and multidrug resistance-associated protein 2 in vinblastine-resistant Caco-2 cell monolayers” (Pharm Res, 2004).

In this data set the target is ATP-dependent translocase ABCB1 (Homo sapiens, UniProt P08183). Kind of data set: TP_TRANSPORTER: transepithelial transport of Rhodamine 123 (basal to apical) in Caco-2R cells. The format is functional, cell-based.
ATP-dependent translocase ABCB1, sequence (P08183 whole entry): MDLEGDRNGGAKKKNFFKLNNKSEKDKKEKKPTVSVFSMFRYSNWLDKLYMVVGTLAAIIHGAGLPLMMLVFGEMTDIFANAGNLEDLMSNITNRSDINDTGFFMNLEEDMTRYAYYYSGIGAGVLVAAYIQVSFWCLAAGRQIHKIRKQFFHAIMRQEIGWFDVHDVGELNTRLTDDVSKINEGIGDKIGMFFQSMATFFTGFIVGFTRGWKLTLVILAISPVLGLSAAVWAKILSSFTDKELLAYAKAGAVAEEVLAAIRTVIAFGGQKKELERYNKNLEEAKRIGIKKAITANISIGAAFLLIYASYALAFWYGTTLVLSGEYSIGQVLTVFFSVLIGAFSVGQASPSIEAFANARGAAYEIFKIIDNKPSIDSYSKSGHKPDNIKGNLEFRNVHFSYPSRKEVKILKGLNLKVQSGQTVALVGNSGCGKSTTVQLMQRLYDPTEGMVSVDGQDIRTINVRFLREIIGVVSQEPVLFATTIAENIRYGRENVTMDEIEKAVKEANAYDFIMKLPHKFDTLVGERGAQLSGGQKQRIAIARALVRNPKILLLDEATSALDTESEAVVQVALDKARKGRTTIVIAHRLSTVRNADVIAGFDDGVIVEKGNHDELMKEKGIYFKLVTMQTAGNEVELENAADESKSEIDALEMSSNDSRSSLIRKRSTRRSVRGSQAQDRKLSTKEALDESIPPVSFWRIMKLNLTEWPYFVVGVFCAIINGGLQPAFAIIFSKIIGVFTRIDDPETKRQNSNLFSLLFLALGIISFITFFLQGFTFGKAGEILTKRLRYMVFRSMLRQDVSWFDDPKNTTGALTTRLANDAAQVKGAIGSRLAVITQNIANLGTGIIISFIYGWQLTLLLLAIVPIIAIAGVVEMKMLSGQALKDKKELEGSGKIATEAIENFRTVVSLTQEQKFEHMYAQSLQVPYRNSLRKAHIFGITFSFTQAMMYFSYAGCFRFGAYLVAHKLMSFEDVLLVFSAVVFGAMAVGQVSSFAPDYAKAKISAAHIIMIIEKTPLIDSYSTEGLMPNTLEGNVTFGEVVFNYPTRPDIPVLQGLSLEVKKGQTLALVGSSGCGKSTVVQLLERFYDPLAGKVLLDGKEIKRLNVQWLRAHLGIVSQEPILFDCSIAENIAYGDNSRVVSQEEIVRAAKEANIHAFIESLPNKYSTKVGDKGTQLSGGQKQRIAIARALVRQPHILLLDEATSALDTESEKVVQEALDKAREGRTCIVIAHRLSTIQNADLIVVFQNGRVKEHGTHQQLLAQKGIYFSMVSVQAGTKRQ
With `COC[C@@H]1O[C@H]2O[C@@H]3[C@@H](O)[C@H](O)[C@H](O[C@@H]4[C@@H](O)[C@H](O)[C@H](O[C@H]5[C@H](OC)[C@@H](O)[C@@H](O[C@@H]6[C@@H](O)[C@H](O)[C@H](O[C@@H]7[C@@H](O)[C@H](O)[C@H](O[C@@H]8[C@@H](O)[C@H](O)[C@H](O[C@@H]1[C@@H](O)[C@@H]2O)O[C@H]8COC)O[C@H]7COC)O[C@H]6COC)O[C@@H]5COC)O[C@H]4COC)O[C@H]3COC`, the Activity entry is “is not an inhibitor [-]”. Next, `CC(O)COC[C@H]1O[C@@H]2O[C@H]3[C@H](O)[C@@H](O)[C@@H](O[C@H]4[C@H](O)[C@@H](O)[C@@H](O[C@H]5[C@H](O)[C@@H](O)[C@@H](O[C@H]6[C@H](O)[C@@H](O)[C@@H](O[C@H]7[C@H](O)[C@@H](O)[C@@H](O[C@H]8[C@H](O)[C@@H](O)[C@@H](O[C@H]1[C@H](O)[C@H]2O)O[C@@H]8COCC(C)O)O[C@@H]7COCC(C)O)O[C@@H]6COCC(C)O)O[C@@H]5COCC(C)O)O[C@@H]4COCC(C)O)O[C@@H]3COCC(C)O` (stereo partly drawn) [2-HYDROXYPROPYL-BETA-CYCLODEXTRIN]: “is not an inhibitor [-]”. As for `COC[C@H]1O[C@@H]2O[C@H]3[C@H](O)[C@@H](OC)[C@@H](O[C@H]4[C@H](O)[C@@H](OC)[C@@H](O[C@H]5[C@H](O)[C@@H](OC)[C@@H](O[C@H]6[C@H](O)[C@@H](OC)[C@@H](O[C@H]7[C@H](O)[C@@H](OC)[C@@H](O[C@H]8[C@H](O)[C@@H](OC)[C@@H](O[C@H]1[C@H](O)[C@H]2OC)O[C@@H]8COC)O[C@@H]7COC)O[C@@H]6COC)O[C@@H]5COC)O[C@@H]4COC)O[C@@H]3COC`, the Activity entry is “inhibitor [+]”. Turning to `CCCC(OC(CCC)S(=O)(=O)O)S(=O)(=O)O.OC[C@H]1O[C@@H]2O[C@H]3[C@H](O)[C@@H](O)[C@@H](O[C@H]4[C@H](O)[C@@H](O)[C@@H](O[C@H]5[C@H](O)[C@@H](O)[C@@H](O[C@H]6[C@H](O)[C@@H](O)[C@@H](O[C@H]7[C@H](O)[C@@H](O)[C@@H](O[C@H]8[C@H](O)[C@@H](O)[C@@H](O[C@H]1[C@H](O)[C@H]2O)O[C@@H]8CO)O[C@@H]7CO)O[C@@H]6CO)O[C@@H]5CO)O[C@@H]4CO)O[C@@H]3CO`, the Activity entry is “is not an inhibitor [-]”.
